Laboratory results from US12263155B2, “Combinations of monoamine oxidase inhibitors and serotonin receptor agonists and their therapeutic use” (Remedi, Inc., priority 2022, dated 2025).

How the values were obtained:
[1] = Phase I modified release tablets BID safety; type: in vivo, human; conditions: 125 mg and 175 mg BID, 7 days each
Description: Methods: A total of 20 Subjects (16 on CX157 and 4 on placebo) were dosed with CX157 Modified Release Tablets, 125 mg BID (total daily dose of 250 mg) or placebo in Period 1 for 7 days. Of the 20 subjects, 19 continued in Period 2 of the study where they received CX157 Modified Release Tablets, 175 mg BID (total daily dose of 350 mg) or placebo in the fed state for 7 days. Subjects who were randomized to CX157 125 mg BID in Period 1 received CX157 175 mg BID in Period 2, after a washout of 7 days. Subjects randomized to placebo in Period 1 received placebo in Period 2, after a washout of 7 days. Blood samples for PK analysis were collected during both periods of the study.

[2] = Fed versus fasted pharmacokinetics of modified release tablet; type: in vivo; conditions: human, plasma, oral, 175 mg; fed and fasted; read-out: half-life, mean, range over treatments
Description: Methods: A total of 18 subjects were to participate and receive a single dose of CX157 Modified Release Tablet, 175 mg in fed or fasted states according to a randomization schedule. There was a six to seven-day washout period between the two study drug administrations.
Each CX157 Modified Release Tablet, 175 mg is stored long-term at controlled room temperature conditions [25° C. (77° F.), excursions 15-30° C. (59-86° F.)]; the tablets are a modified caplet shape, pale pink in color, and plain on both sides.

Oxidase MAO-A Peripheral = molecular target: T1, Oxidase MAO-A Peripheral (Rattus norvegicus, UniProt P21396); assay: NovaScreen ligand-binding screen, MAO-A
T1 construct: purchased NovaScreen
T1 sequence (P21396 1-526): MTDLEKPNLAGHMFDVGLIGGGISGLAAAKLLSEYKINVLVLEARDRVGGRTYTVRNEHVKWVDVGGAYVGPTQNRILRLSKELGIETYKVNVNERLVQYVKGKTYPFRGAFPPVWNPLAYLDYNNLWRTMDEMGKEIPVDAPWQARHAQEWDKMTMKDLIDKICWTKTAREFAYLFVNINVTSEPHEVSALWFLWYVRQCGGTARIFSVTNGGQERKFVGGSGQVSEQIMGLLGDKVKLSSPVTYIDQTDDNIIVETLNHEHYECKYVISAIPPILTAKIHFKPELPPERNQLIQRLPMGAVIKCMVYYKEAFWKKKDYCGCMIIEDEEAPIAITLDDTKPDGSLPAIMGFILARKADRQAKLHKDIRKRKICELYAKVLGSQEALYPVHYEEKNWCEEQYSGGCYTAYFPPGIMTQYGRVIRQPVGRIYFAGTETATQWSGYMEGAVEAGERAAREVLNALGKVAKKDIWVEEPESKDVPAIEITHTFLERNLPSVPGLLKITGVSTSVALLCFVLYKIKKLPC
Description: (§1) Methods: Investigational drug candidates CX157 were analyzed in NovaScreen's bank of ligand-binding reactions to test for specificity. CX157 was screened at concentrations of both 10.0 nM and 100 nM as potential competitors in binding reactions involving nine classes containing 69 binding sites. The following binding reactions are tested: Adenosine Non-selective, Adrenergic Alpha 1 Non-selective, Adrenergic Alpha 2 Non-selective, Adrenergic Beta Non-selective, Dopamine Transporter, Dopamine Non-selective, GABA A Agonist Site, GABA A BDZ alpha 1 site, GABA B, Glutamate AMPA Site (Ionotropic), Glutamate Kainate Site (Ionotropic), Glutamate NMDA Agonist Site (Ionotropic), Glutamate NMDA Glycine (Stry-insens Site) (Ionotrophic), Glycine Strychnine-sensitive, Histamine H1, Histamine H2, Histamine H3, Melatonin Non-selective, Muscarinic M1 (hr), Muscarinic M2 (hr), Muscarinic Non-selective Central, Muscarinic Non-selective Peripheral, Nicotinic (α-BnTx insensitive) Neuronal, Norepinephrine Transporter, Opioid Non-selective, Orphanin (hr), Serotonin Transporter, Serotonin Non-selective, Sigma Non-selective, Estrogen, Testosterone (cytosolic), Calcium Channel Type L (Dihydropyridine Site), Calcium Channel Type N, Potassium Channel ATP-Sensitive, Potassium Channel Ca2+ Act. VI, Potassium Channel I[Kr]

[3] = tested on: 69 binding sites in nine classes; assay: NovaScreen ligand-binding screen, other binding sites; conditions: 10.0 nM and 100 nM
Description: as §1

MAO-B = molecular target: T2, MAO-B (Homo sapiens, UniProt P27338)
T2 sequence (P27338 1-520): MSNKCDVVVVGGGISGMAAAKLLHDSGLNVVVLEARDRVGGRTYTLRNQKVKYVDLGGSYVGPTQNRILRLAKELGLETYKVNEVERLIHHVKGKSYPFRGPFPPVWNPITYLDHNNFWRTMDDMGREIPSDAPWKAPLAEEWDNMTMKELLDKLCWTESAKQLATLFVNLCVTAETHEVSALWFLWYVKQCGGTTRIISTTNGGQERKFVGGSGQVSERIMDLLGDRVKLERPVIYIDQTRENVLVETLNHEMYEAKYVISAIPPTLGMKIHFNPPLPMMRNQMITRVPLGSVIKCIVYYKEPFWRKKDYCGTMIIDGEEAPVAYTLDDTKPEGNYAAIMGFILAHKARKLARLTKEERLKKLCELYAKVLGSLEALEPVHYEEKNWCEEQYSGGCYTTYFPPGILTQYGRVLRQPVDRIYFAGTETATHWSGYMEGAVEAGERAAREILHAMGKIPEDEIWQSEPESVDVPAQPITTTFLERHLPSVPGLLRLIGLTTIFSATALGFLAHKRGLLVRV

[4] = 10, 20 and 40 mg twice daily for 14 days, healthy volunteers
Description: Methods: The study was a Phase I, single-center, randomized, parallel-group, multiple-dose, placebo-controlled, pharmacodynamic, pharmacokinetic and safety study in healthy volunteers. To obtain 24 enrolled subjects, screening procedures and inclusion/exclusion criteria were evaluated for 54 subjects during a variable screening period of up to 28 days. Once enrolled, subjects were randomized to either CX157 10 mg, 20 mg or 40 mg or matching placebo administered twice daily for 14 consecutive days.

## O=S1(=O)c2ccc(F)cc2Oc2cc(OCC(F)(F)F)ccc21 [CX157, 3-fluoro-7(2,2,2-trifluorethoxy)phenoxathiine-10,10-dioxide]
[1]
  tolerability: well tolerated
[2]
  half-life: 20.6 to 23.5 h
Oxidase MAO-A Peripheral; 10.0 nM CX157
  reduction of [14C]-5-HT binding: 63.4%
Oxidase MAO-A Peripheral; 100 nM CX157
  reduction of [14C]-5-HT binding: 100.6%
Oxidase MAO-A Peripheral; read-out: Kd, competition for [14C]-serotonin (5-HT) binding
  Kd: 8.7 nM
[3]
  interactions with other binding sites in the screen: no interactions
MAO-B; human brain homogenates
  selectivity for MAO-A inhibition over MAO-B inhibition: > 1000 fold
MAO-B; tested concentration 10 μM
  MAO-B inhibition: no detectable MAO-B inhibition
[4]
  safety and tolerability: generally safe and well tolerated
